Reference: US20240218079A1, “PLASMA KALLIKREIN ANTIBODIES AND USES THEREOF” (Astria Therapeutics, Inc., priority 2021, published 2024)
Structures can show the parent of a compound that is named as a salt. Where two headings read alike, the source gives them in different places. Peptide text beside a SMILES is read from it.

Legend:
Assay type in all cases: biochemical
[1] = target: T1, Cathepsin G (Homo sapiens, UniProt P08311); assay: Serine protease inhibition assay: Cathepsin G; conditions: control compound, 10-dose 3-fold serial dilution starting at 10 μM or 100 uM
T1 sequence (P08311 21-244): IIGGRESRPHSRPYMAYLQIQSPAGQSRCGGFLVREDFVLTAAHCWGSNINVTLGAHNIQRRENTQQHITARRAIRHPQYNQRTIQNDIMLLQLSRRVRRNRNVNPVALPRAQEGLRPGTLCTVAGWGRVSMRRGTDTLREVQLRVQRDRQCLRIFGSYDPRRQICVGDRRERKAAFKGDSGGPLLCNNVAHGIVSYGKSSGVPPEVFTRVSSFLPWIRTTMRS
Procedure: (§1) Control compounds were tested in a 10-dose assay with 3-fold serial dilution starting at 10 μM or 100 uM (tPA, Matriptase 2, Kallikrein 5, Kallikrein 2, Kallikrein 1, Granzyme B, and APC). The protease activities were monitored as a time-course measurement of the increase in fluorescence signal from a fluorescently-labeled peptide substrate, and the initial linear portion of the signal slope (signal/min) was analyzed. % Enzyme activity for antibody titrations were calculated respective to vehicle controls in presence of PBS buffer as 100% Activity.
(§2) Empty cells indicate no inhibition or compound activity that could not be fit to an IC50 curve. The IC50 value higher than 1 μM was estimated based on the best curve fitting available.

[2] = target: Granzyme B (Homo sapiens, UniProt P10144); assay: Serine protease inhibition assay: Granzyme B; conditions: control compound, 10-dose 3-fold serial dilution starting at 10 μM or 100 uM
Procedure: as §1, §2

[3] = target: Kallikrein 1 (Homo sapiens, UniProt P06870); assay: Serine protease inhibition assay: Kallikrein 1; conditions: control compound, 10-dose 3-fold serial dilution starting at 10 μM or 100 uM
Procedure: as §1, §2

[4] = target: T2, Factor XIIa (Homo sapiens, UniProt P00748); assay: Serine protease inhibition assay: Factor XIIa; conditions: control compound, 10-dose 3-fold serial dilution starting at 10 μM or 100 uM
T2 sequence (P00748 373-615 limits assumed): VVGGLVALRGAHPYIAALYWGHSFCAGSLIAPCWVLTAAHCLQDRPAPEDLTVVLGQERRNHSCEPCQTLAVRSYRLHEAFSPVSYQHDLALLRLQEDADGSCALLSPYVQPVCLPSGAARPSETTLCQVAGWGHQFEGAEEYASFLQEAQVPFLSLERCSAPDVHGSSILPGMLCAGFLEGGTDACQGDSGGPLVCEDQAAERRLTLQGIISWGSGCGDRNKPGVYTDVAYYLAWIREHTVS
Procedure: as §1, §2

[5] = target: T3, Factor VIIa (Homo sapiens, UniProt P08709); assay: Serine protease inhibition assay: Factor VIIa; conditions: control compound, 10-dose 3-fold serial dilution starting at 10 μM or 100 uM
T3 sequence (P08709 213-466 limits assumed): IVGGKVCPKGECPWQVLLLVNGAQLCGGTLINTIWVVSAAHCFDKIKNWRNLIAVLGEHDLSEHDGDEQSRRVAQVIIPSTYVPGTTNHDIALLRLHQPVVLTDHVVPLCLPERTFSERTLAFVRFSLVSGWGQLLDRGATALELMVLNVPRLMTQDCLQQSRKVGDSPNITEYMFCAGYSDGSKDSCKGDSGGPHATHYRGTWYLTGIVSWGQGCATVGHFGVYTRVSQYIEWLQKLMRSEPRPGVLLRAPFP
T3 sequence (P08709 61-212 limits assumed): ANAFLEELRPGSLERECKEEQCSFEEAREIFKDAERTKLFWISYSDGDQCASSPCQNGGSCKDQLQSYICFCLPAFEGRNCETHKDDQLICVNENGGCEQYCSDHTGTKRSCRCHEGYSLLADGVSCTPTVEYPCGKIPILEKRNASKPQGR
Procedure: as §1, §2

[6] = target: tPA (Homo sapiens, UniProt P00750); assay: Serine protease inhibition assay: tPA; conditions: control compound, 10-dose 3-fold serial dilution starting at 10 μM or 100 uM
Procedure: as §1, §2

[7] = target: Activated Protein C (Homo sapiens, UniProt P04070); assay: Serine protease inhibition assay: Activated Protein C; conditions: control compound, 10-dose 3-fold serial dilution starting at 10 μM or 100 uM
Procedure: as §1, §2

[8] = target: Thrombin a (Homo sapiens, UniProt P00734); assay: Serine protease inhibition assay: Thrombin a; conditions: control compound, 10-dose 3-fold serial dilution starting at 10 μM or 100 uM
Procedure: as §1, §2

[9] = target: Kallikrein 2 (Homo sapiens, UniProt P20151); assay: Serine protease inhibition assay: Kallikrein 2; conditions: control compound, 10-dose 3-fold serial dilution starting at 10 μM or 100 uM
Procedure: as §1, §2

[10] = target: T4, Matriptase 2 (Homo sapiens, UniProt Q8IU80); assay: Serine protease inhibition assay: Matriptase 2; conditions: control compound, 10-dose 3-fold serial dilution starting at 10 μM or 100 uM
T4 sequence (Q8IU80 1-811): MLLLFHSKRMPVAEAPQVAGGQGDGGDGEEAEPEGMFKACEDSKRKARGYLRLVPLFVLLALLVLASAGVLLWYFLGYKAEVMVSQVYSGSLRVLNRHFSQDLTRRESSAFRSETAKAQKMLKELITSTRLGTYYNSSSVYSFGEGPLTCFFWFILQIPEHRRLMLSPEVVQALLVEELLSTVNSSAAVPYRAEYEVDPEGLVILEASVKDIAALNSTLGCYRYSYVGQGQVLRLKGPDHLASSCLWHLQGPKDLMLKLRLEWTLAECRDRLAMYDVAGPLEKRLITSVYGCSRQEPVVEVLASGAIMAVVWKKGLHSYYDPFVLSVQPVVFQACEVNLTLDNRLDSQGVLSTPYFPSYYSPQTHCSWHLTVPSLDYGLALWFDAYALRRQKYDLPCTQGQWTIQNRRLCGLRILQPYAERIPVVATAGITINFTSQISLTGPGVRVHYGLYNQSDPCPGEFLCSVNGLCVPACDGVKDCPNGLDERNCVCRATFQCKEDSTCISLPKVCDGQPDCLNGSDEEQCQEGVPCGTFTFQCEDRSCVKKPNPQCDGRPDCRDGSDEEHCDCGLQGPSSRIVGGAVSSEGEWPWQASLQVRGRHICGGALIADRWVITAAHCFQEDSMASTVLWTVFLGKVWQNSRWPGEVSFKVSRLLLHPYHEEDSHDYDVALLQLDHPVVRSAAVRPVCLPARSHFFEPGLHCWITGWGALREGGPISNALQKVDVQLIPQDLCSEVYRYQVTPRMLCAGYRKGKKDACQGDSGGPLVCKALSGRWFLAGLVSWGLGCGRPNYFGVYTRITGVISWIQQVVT
Procedure: as §1, §2

[11] = target: T5, Kallikrein 12 (Homo sapiens, UniProt Q9UKR0); assay: Serine protease inhibition assay: Kallikrein 12; conditions: control compound, 10-dose 3-fold serial dilution starting at 10 μM or 100 uM
T5 sequence (Q9UKR0 18-248): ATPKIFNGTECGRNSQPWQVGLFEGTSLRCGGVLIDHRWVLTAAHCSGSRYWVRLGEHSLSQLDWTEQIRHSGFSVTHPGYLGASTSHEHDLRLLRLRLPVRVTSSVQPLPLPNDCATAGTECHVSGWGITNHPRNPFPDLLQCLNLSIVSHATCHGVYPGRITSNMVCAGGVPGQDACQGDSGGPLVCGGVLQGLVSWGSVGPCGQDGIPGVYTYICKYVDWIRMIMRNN
Procedure: as §1, §2

[12] = target: Plasmin (Homo sapiens, UniProt P00747); assay: Serine protease inhibition assay: Plasmin; conditions: control compound, 10-dose 3-fold serial dilution starting at 10 μM or 100 uM
Procedure: as §1, §2

[13] = target: Hepsin (Homo sapiens, UniProt P05981); assay: Serine protease inhibition assay: Hepsin; conditions: control compound, 10-dose 3-fold serial dilution starting at 10 μM or 100 uM
Procedure: as §1, §2

[14] = target: T6, Kallikrein 5 (Homo sapiens, UniProt Q9Y337); assay: Serine protease inhibition assay: Kallikrein 5; conditions: control compound, 10-dose 3-fold serial dilution starting at 10 μM or 100 uM
T6 sequence (Q9Y337 23-293): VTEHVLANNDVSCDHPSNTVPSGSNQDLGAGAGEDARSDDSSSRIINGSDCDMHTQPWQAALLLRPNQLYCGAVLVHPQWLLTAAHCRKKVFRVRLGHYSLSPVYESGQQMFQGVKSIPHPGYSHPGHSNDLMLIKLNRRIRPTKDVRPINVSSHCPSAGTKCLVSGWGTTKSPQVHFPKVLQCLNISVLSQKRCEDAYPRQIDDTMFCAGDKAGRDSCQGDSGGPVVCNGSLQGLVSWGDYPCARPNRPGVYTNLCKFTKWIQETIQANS
Procedure: as §1, §2

[15] = target: Urokinase (Homo sapiens, UniProt P00749); assay: Serine protease inhibition assay: Urokinase; conditions: control compound, 10-dose 3-fold serial dilution starting at 10 μM or 100 uM
Procedure: as §1, §2

[16] = test system: trypsin, human pancrease; assay: Trypsin inhibition assay; conditions: 0.25 nM trypsin, PFR-AMC, 2 hours
Procedure: Fluorescence intensity was measured every 5 minutes. Gabexate mesylate was used as a positive control, in a dilution series starting at 1 μM. The assay was performed in duplicate.

Kallikrein 2, sequence (P20151 25-261, species assumed): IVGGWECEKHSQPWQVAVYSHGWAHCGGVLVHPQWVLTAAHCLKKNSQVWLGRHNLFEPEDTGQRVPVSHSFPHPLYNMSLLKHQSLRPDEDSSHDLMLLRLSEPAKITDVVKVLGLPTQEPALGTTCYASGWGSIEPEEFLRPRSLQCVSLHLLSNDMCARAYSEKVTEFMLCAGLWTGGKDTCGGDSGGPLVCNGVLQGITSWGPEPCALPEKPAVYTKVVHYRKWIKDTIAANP
Granzyme B, sequence (P10144 21-247, species assumed): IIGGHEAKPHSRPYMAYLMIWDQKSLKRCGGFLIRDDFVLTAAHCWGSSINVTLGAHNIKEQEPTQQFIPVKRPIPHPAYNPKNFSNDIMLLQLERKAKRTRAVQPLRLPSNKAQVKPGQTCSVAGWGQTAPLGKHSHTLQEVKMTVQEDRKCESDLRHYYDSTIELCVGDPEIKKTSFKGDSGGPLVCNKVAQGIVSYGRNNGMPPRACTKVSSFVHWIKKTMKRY
Activated Protein C, sequence (P04070 212-461 limits assumed): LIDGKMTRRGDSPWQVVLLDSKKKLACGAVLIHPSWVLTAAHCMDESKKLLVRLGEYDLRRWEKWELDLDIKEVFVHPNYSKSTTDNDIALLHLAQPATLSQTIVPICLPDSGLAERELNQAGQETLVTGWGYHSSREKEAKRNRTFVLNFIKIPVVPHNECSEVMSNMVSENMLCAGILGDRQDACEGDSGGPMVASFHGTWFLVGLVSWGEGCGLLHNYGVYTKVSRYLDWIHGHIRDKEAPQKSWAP
Activated Protein C, sequence (P04070 43-197 limits assumed): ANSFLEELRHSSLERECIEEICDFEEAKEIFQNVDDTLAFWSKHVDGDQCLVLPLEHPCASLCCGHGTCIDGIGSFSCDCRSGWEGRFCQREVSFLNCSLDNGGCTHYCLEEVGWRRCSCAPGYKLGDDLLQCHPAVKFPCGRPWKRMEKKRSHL
Kallikrein 1, sequence (P06870 25-262, species assumed): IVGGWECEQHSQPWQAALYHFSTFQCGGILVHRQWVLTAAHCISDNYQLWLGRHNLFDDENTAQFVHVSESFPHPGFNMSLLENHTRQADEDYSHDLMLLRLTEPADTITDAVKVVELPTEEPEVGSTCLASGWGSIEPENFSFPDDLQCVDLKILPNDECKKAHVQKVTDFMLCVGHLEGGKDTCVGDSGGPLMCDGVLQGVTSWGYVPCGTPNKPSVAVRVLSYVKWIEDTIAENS
Hepsin, sequence (P05981 whole entry): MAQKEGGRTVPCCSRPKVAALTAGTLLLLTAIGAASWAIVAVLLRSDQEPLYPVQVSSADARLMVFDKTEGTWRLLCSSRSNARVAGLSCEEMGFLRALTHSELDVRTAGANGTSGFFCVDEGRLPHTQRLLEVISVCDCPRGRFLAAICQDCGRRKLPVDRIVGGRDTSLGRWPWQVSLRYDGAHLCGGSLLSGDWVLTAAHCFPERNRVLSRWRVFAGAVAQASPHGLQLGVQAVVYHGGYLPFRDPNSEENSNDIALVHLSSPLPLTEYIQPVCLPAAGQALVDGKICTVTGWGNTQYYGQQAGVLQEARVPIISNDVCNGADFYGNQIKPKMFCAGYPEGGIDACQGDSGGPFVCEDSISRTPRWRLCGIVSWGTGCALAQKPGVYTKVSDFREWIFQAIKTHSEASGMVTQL
tPA, sequence (P00750 36-562, species assumed): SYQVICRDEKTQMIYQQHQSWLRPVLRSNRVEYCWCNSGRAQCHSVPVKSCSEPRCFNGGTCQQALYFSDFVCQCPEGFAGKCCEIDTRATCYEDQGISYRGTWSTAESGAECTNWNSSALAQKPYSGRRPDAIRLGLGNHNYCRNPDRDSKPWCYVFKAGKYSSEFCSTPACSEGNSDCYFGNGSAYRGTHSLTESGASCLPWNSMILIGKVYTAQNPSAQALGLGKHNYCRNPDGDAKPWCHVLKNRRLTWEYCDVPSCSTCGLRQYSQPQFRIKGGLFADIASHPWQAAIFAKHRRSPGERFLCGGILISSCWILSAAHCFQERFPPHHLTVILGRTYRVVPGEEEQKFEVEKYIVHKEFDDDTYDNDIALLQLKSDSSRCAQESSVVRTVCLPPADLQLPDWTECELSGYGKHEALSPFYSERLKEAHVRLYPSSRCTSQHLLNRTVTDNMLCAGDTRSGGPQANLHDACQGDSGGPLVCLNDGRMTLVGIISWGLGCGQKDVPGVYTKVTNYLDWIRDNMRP
Plasmin, sequence (P00747 581-810 limits assumed, species assumed): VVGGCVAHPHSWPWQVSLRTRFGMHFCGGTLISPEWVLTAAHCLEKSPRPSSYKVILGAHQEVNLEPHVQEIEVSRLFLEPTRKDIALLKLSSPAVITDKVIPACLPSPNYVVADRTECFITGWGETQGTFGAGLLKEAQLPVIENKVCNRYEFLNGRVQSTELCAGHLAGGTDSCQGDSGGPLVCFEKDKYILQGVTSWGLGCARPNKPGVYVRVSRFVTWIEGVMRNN
Plasmin, sequence (P00747 97-580 limits assumed, species assumed): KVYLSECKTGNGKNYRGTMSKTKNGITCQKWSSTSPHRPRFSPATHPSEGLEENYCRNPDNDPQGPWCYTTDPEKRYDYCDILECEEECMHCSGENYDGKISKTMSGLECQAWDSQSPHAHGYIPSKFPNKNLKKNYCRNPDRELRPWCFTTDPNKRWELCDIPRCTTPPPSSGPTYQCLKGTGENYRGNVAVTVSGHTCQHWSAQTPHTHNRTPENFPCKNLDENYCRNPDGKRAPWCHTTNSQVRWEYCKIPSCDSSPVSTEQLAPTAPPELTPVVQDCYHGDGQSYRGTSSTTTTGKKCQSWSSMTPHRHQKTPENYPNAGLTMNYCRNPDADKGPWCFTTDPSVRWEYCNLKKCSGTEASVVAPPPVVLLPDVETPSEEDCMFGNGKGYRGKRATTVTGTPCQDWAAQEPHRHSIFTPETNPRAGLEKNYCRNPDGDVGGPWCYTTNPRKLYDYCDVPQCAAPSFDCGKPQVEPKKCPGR

**Q.** Which IC50 [1] does the source give for `CC(C)C[C@H](NC(=O)[C@@H](NC(=O)N[C@@H](Cc1ccccc1)C(=O)O)[C@@H]1CCN=C(N)N1)C(=O)N[C@H](C=O)Cc1ccccc1` [Chymostatin] here?
**A.** 4090 nM

**Q.** With `CC[C@H](C)[C@H](NC(C)=O)C(=O)N[C@@H](CCC(=O)O)C(=O)N[C@H](C(=O)N[C@H](C=O)CC(=O)O)[C@@H](C)O` [IETD-CHO] (Ac-IETD-aldehyde; N-terminus assumed) as the compound, how does the IC50 [2] read?
**A.** 178 nM

**Q.** `CC(=O)N[C@@H](CC(C)C)C(=O)N[C@@H](CC(C)C)C(=O)N[C@H](C=O)CCCNC(=N)N` [Leupeptin] was tested. Which IC50 [3] did it give?
**A.** 2990 nM

**Q.** How did the IC50 [4] turn out when `N=C(N)c1ccc2cc(OC(=O)c3ccc(N=C(N)N)cc3)ccc2c1` [Nafamostat mesylate] was run?
**A.** 23.2 nM

**Q.** With `N=C(N)c1ccc2nc(-c3cc(CC(=O)N[C@@H](CC(=O)O)C(=O)O)cc(-c4cc(S(N)(=O)=O)ccc4O)c3O)[nH]c2c1` [PCI 27483] as the compound, how does the IC50 [5] read?
**A.** 141 nM

**Q.** With “Gabexate mesylate [Gabexate mesylate (GM)]” as the compound, how does the IC50 [6] read?
**A.** 1060 nM

**Q.** What about the IC50 [7] of the same compound?
**A.** 64.8 nM

**Q.** And the IC50 [8]?
**A.** 837 nM

**Q.** And the IC50 [9]?
**A.** 139 nM

**Q.** And the IC50 [10]?
**A.** 201 nM

**Q.** What about the IC50 [11] of the same compound?
**A.** 32.5 nM

**Q.** What about the IC50 [12] of the same compound?
**A.** 253 nM

**Q.** And the IC50 [13]?
**A.** 51 nM

**Q.** And the IC50 [14]?
**A.** 8730 nM

**Q.** And the IC50 [15]?
**A.** 16.5 nM

**Q.** What about the IC50 ([16]; read-out: Compound IC50 (M) Data 1) of the same compound?
**A.** 2.13e-09 M

**Q.** What about the IC50 ([16]; read-out: Compound IC50 (M) Data 2) of the same compound?
**A.** 2.33e-09 M
